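The compound was tested at five concentrations on cells cultured in 96-well plates, with a 48-hour exposure period. TGI: concentration producing complete growth inhibition.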
How the values were obtained:
Assay in all cases: DTP human tumour cell line panel, 48 h
UACC-257 melanoma = test system: UACC-257 melanoma
COLO 205 colon = test system: COLO 205 colon
LOX IMVI melanoma = test system: LOX IMVI melanoma
PC-3 prostate = test system: PC-3 prostate
NCI/ADR-RES ovarian = test system: NCI/ADR-RES ovarian
SNB-19 CNS = test system: SNB-19 CNS
CAKI-1 renal = test system: CAKI-1 renal
M14 melanoma = test system: M14 melanoma
SF-295 CNS = test system: SF-295 CNS
SW-620 colon = test system: SW-620 colon
MDA-N = test system: MDA-N
UACC-62 melanoma = test system: UACC-62 melanoma
OVCAR-8 ovarian = test system: OVCAR-8 ovarian
T-47D breast = test system: T-47D breast
HOP-92 NSCLC = test system: HOP-92 NSCLC
MDA-MB-435 = test system: MDA-MB-435
OVCAR-5 ovarian = test system: OVCAR-5 ovarian
MDA-MB-231 breast = test system: MDA-MB-231 breast
NCI-H23 lung = test system: NCI-H23 lung
MOLT-4 leukemia = test system: MOLT-4 leukemia
A549 NSCLC = test system: A549 NSCLC
HCC-2998 colon = test system: HCC-2998 colon
RPMI-8226 leukemia = test system: RPMI-8226 leukemia
SK-MEL-5 melanoma = test system: SK-MEL-5 melanoma
786-0 renal = test system: 786-0 renal
SK-OV-3 ovarian = test system: SK-OV-3 ovarian
SK-MEL-28 melanoma = test system: SK-MEL-28 melanoma
SF-539 CNS = test system: SF-539 CNS
IGROV1 ovarian = test system: IGROV1 ovarian
HCT-116 colon = test system: HCT-116 colon
MCF7 breast = test system: MCF7 breast
RXF 393 renal = test system: RXF 393 renal
CCRF-CEM leukemia = test system: CCRF-CEM leukemia
DU-145 prostate = test system: DU-145 prostate
HOP-62 NSCLC = test system: HOP-62 NSCLC
HS 578T breast = test system: HS 578T breast
OVCAR-3 ovarian = test system: OVCAR-3 ovarian
SNB-75 CNS = test system: SNB-75 CNS
U251 CNS = test system: U251 CNS
HCT-15 colon = test system: HCT-15 colon
SK-MEL-2 melanoma = test system: SK-MEL-2 melanoma
UO-31 renal = test system: UO-31 renal
OVCAR-4 ovarian = test system: OVCAR-4 ovarian
EKVX NSCLC = test system: EKVX NSCLC
TK-10 renal = test system: TK-10 renal
ACHN renal = test system: ACHN renal
SN12C renal = test system: SN12C renal
NCI-H226 lung = test system: NCI-H226 lung
A498 renal = test system: A498 renal
BT-549 breast = test system: BT-549 breast
MALME-3M melanoma = test system: MALME-3M melanoma
NCI-H522 lung = test system: NCI-H522 lung
SF-268 CNS = test system: SF-268 CNS
KM12 colon = test system: KM12 colon
NCI-H460 lung = test system: NCI-H460 lung
HL-60(TB) leukemia = test system: HL-60(TB) leukemia
HT29 colon = test system: HT29 colon
K-562 leukemia = test system: K-562 leukemia

COC(=O)[C@@H](NC(=O)N(CCC#N)CCCN(C(=O)N[C@H](Cc1ccccc1)C(=O)OC)c1ccccc1)C(C)C
TGI (UACC-257 melanoma): > 100 µM
TGI (COLO 205 colon): > 100 µM
TGI (LOX IMVI melanoma): > 100 µM
TGI (PC-3 prostate): > 100 µM
TGI (NCI/ADR-RES ovarian): > 100 µM
TGI (SNB-19 CNS): > 100 µM
TGI (CAKI-1 renal): > 100 µM
TGI (M14 melanoma): > 100 µM
TGI (SF-295 CNS): > 100 µM
TGI (SW-620 colon): > 100 µM
TGI (MDA-N): > 100 µM
TGI (UACC-62 melanoma): > 100 µM
TGI (OVCAR-8 ovarian): > 100 µM
TGI (T-47D breast): > 100 µM
TGI (HOP-92 NSCLC): 80 µM
TGI (MDA-MB-435): > 100 µM
TGI (OVCAR-5 ovarian): > 100 µM
TGI (MDA-MB-231 breast): > 100 µM
TGI (NCI-H23 lung): > 100 µM
TGI (MOLT-4 leukemia): > 100 µM
TGI (A549 NSCLC): > 100 µM
TGI (HCC-2998 colon): > 100 µM
TGI (RPMI-8226 leukemia): > 100 µM
TGI (SK-MEL-5 melanoma): > 100 µM
TGI (786-0 renal): > 100 µM
TGI (SK-OV-3 ovarian): > 100 µM
TGI (SK-MEL-28 melanoma): > 100 µM
TGI (SF-539 CNS): > 100 µM
TGI (IGROV1 ovarian): > 100 µM
TGI (HCT-116 colon): > 100 µM
TGI (MCF7 breast): > 100 µM
TGI (RXF 393 renal): > 100 µM
TGI (CCRF-CEM leukemia): > 100 µM
TGI (DU-145 prostate): > 100 µM
TGI (HOP-62 NSCLC): > 100 µM
TGI (HS 578T breast): > 100 µM
TGI (OVCAR-3 ovarian): > 100 µM
TGI (SNB-75 CNS): > 100 µM
TGI (U251 CNS): > 100 µM
TGI (HCT-15 colon): > 100 µM
TGI (SK-MEL-2 melanoma): > 100 µM
TGI (UO-31 renal): > 100 µM
TGI (OVCAR-4 ovarian): > 100 µM
TGI (EKVX NSCLC): > 100 µM
TGI (TK-10 renal): > 100 µM
TGI (ACHN renal): > 100 µM
TGI (SN12C renal): > 100 µM
TGI (NCI-H226 lung): > 100 µM
TGI (A498 renal): > 100 µM
TGI (BT-549 breast): > 100 µM
TGI (MALME-3M melanoma): 92.7 µM
TGI (NCI-H522 lung): > 100 µM
TGI (SF-268 CNS): > 100 µM
TGI (KM12 colon): > 100 µM

N#Cc1cc(-c2nc3c(F)cccc3s2)ccc1N
TGI (UACC-257 melanoma): > 100 µM
TGI (COLO 205 colon): > 100 µM
TGI (LOX IMVI melanoma): > 100 µM
TGI (NCI-H460 lung): > 100 µM
TGI (PC-3 prostate): > 100 µM
TGI (NCI/ADR-RES ovarian): > 100 µM
TGI (SNB-19 CNS): > 100 µM
TGI (CAKI-1 renal): > 100 µM
TGI (M14 melanoma): > 100 µM
TGI (SF-295 CNS): > 100 µM
TGI (SW-620 colon): > 100 µM
TGI (MDA-N): > 100 µM
TGI (UACC-62 melanoma): > 100 µM
TGI (OVCAR-8 ovarian): > 100 µM
TGI (HL-60(TB) leukemia): > 100 µM
TGI (T-47D breast): > 100 µM
TGI (HOP-92 NSCLC): > 100 µM
TGI (MDA-MB-435): > 100 µM
TGI (OVCAR-5 ovarian): > 100 µM
TGI (MDA-MB-231 breast): > 100 µM
TGI (NCI-H23 lung): > 100 µM
TGI (MOLT-4 leukemia): > 100 µM
TGI (A549 NSCLC): > 100 µM
TGI (RPMI-8226 leukemia): > 100 µM
TGI (SK-MEL-5 melanoma): > 100 µM
TGI (786-0 renal): > 100 µM
TGI (SK-OV-3 ovarian): > 100 µM
TGI (HT29 colon): > 100 µM
TGI (SF-539 CNS): > 100 µM
TGI (IGROV1 ovarian): > 100 µM
TGI (HCT-116 colon): > 100 µM
TGI (MCF7 breast): 4.06 µM
TGI (RXF 393 renal): > 100 µM
TGI (CCRF-CEM leukemia): > 100 µM
TGI (DU-145 prostate): > 100 µM
TGI (HOP-62 NSCLC): > 100 µM
TGI (HS 578T breast): > 100 µM
TGI (OVCAR-3 ovarian): > 100 µM
TGI (SNB-75 CNS): > 100 µM
TGI (U251 CNS): > 100 µM
TGI (HCT-15 colon): > 100 µM
TGI (UO-31 renal): > 100 µM
TGI (OVCAR-4 ovarian): > 100 µM
TGI (EKVX NSCLC): 0.894 µM
TGI (K-562 leukemia): > 100 µM
TGI (TK-10 renal): > 100 µM
TGI (ACHN renal): > 100 µM
TGI (SN12C renal): > 100 µM
TGI (NCI-H226 lung): > 100 µM
TGI (A498 renal): > 100 µM
TGI (BT-549 breast): > 100 µM
TGI (MALME-3M melanoma): > 100 µM
TGI (NCI-H522 lung): > 100 µM
TGI (SF-268 CNS): > 100 µM
TGI (KM12 colon): > 100 µM

CCOC(=O)/C(=C\c1ccc(C#N)cc1)C(C)=O
TGI (UACC-257 melanoma): 43.2 µM
TGI (COLO 205 colon): > 100 µM
TGI (LOX IMVI melanoma): 34.5 µM
TGI (NCI-H460 lung): > 100 µM
TGI (PC-3 prostate): 39.1 µM
TGI (NCI/ADR-RES ovarian): > 100 µM
TGI (SNB-19 CNS): > 100 µM
TGI (CAKI-1 renal): > 100 µM
TGI (M14 melanoma): 95.1 µM
TGI (SF-295 CNS): > 100 µM
TGI (SW-620 colon): > 100 µM
TGI (MDA-N): > 100 µM
TGI (UACC-62 melanoma): 17.5 µM
TGI (OVCAR-8 ovarian): 96.9 µM
TGI (HL-60(TB) leukemia): > 100 µM
TGI (T-47D breast): 68.2 µM
TGI (HOP-92 NSCLC): 50.6 µM
TGI (MDA-MB-435): 98.3 µM
TGI (OVCAR-5 ovarian): > 100 µM
TGI (MDA-MB-231 breast): 33.3 µM
TGI (NCI-H23 lung): 36.7 µM
TGI (MOLT-4 leukemia): > 100 µM
TGI (A549 NSCLC): > 100 µM
TGI (HCC-2998 colon): 19.6 µM
TGI (RPMI-8226 leukemia): 54.5 µM
TGI (SK-MEL-5 melanoma): 41 µM
TGI (786-0 renal): 32.9 µM
TGI (SK-OV-3 ovarian): > 100 µM
TGI (HT29 colon): > 100 µM
TGI (SF-539 CNS): > 100 µM
TGI (IGROV1 ovarian): 33.9 µM
TGI (HCT-116 colon): 57.3 µM
TGI (MCF7 breast): 61.9 µM
TGI (RXF 393 renal): 30.6 µM
TGI (CCRF-CEM leukemia): > 100 µM
TGI (DU-145 prostate): 37.7 µM
TGI (HOP-62 NSCLC): > 100 µM
TGI (HS 578T breast): 88.6 µM
TGI (OVCAR-3 ovarian): > 100 µM
TGI (SNB-75 CNS): 45.5 µM
TGI (U251 CNS): 32.7 µM
TGI (HCT-15 colon): 40 µM
TGI (SK-MEL-2 melanoma): 31.3 µM
TGI (UO-31 renal): 28 µM
TGI (OVCAR-4 ovarian): 97.9 µM
TGI (EKVX NSCLC): > 100 µM
TGI (K-562 leukemia): > 100 µM
TGI (TK-10 renal): 57.1 µM
TGI (ACHN renal): 68.6 µM
TGI (SN12C renal): 62.8 µM
TGI (NCI-H226 lung): 89.3 µM
TGI (A498 renal): 30 µM
TGI (BT-549 breast): 37 µM
TGI (MALME-3M melanoma): 31.5 µM
TGI (NCI-H522 lung): 24.9 µM
TGI (SF-268 CNS): 87.2 µM
TGI (KM12 colon): 43 µM
